Results reported in US12679825B2, “Crystalline and amorphous forms of a δ-opioid modulator” (Trevena, Inc., priority 2020, dated 2026).
Values after ≈ are worked out from the molar mass of the structure shown.

Test: Approximate solubility by solvent addition technique
Format: physicochemical
Settings: heating to 40° C. between solvent aliquots; for Approximate Solubility: 20° C.; for solubility: 20 °C, thermodynamic from solid
Method: The approximate solubility values of the amorphous free base in the selected solvent systems (see Table 1) was estimated by the solvent addition technique. The following procedure was used for the study: • Approximately 10 mg of material was weighed out into 18×2 mL push-cap vials. • Each solvent/solvent mixture was added to the appropriate vial in 5 volume aliquots (50 μL) until either 1 mL of solvent had been added or until the material dissolved. • In between additions, the sample was stirred at 40° C. • If 1000 μL of solvent was added without dissolution of the material, solubility was calculated to be below this point. • Once addition was complete, all experiments were temperature cycled between 40° C. and 5° C. (1 h hold; 0.1° C./min ramp/cool) for ca. 21 h. • Residual solids were isolated by centrifugation (0.22 μm nylon filter) or by decanting the mother liquor and analyzed by XRPD. • Anti-solvent addition (ASA) at 20° C. was carried out on solutions, followed by further temperature cycling for 21 h. • Any solids were then isolated by centrifugation (0.22 μm nylon filter) or by decanting the mother liquor and analyzed by XRPD. • Experiments which remained solutions had further AS added at 20° C. and were temperature cycled for a further 21 h. • Residual solids were isolated by centrifugation (0.22 μm nylon filter) or by decanting the mother liquor and analyzed by XRPD. • Selected isolated material was dried under vacuum at ambient temperature (ca. 20° C.) for ca. 19-21 h then re-analyzed by XRPD. • Selected dried solids were analyzed by PLM, TG/DSC, DSC, ^1H NMR spectroscopy and HPLC. • Further details can be found in Table 1.
The approximate solubility values of the amorphous free base in a range of different solvent systems was determined at ambient temperature, with heating to 40° C. between solvent aliquots. The solutions and slurries obtained were then used in initial small-scale crystallization trials (see Table 1 for details). […] The material formed gel in water. • Oiling was observed after ASA to experiments carried out in acetone, acetonitrile, DMSO, ethanol, MEK and 2-propanol. • Gum formed after ASA to experiments carried out in anisole, dichloromethane, ethyl acetate, 2-Me THF, toluene, ethanol:water 75:25 v/v and methanol:water 77:23 v/v. • After further temperature cycling, solids were obtained from experiments carried out using tBME, MEK and THF as the initial solvent system. […] (peak at 97° C.) during the first heat. A glass transition with a mid-point half-height of ca. 32° C. was observed during the first cool. […] The residual tBME could not be quantified, due to overlapping signals with the API. Residual heptane was observed, equal to 0.46% w/w, or 0.02 equivalents. • See Table 2 for further details.
Approximate solubility studies were carried out using the amorphous free base in a range of different solvent systems at 20° C., heating to 40° C. between additions of solvent aliquots. […] Poor solubility (≤10 mg/mL) was obtained in water, tBME and heptane, giving limited options for antisolvents. Once the solubility screen was complete, the residual slurries and solutions were temperature cycled, with anti-solvent addition then carried out where experiments remained solutions. […] Poorly crystalline material was isolated from 2-propanol:heptane 20:80 v/v %. Amorphous, or predominantly amorphous material was recovered from 7 experiments, using heptane, dichloromethane:heptane 20:80 v/v %, ethyl acetate:heptane 22:78 v/v %, 2-Me THF:heptane 38:62 v/v %, toluene:heptane 38:62 v/v %, ethanol:water 34:66 v/v % and methanol:water 48:52 v/v %. The remaining experiments yielded gel or oil.

**Q.** What does the source list for `COCCOc1cccc([C@@H]2CCN(CCn3cccc3)[C@H](C)[C@H]2COc2ccc3c(c2)C(=O)NC3)c1` [free base, (−)-6-{[(trans,trans)-4-[3-(2-methoxyethoxy)phenyl]-2-methyl-1-[2-(1H-pyrrol-1-yl)ethyl]piperidin-3-yl]methoxy}-2,3-dihydro-1H-isoindol-1-one]?
**A.** Approximate Solubility (2-Methyl THF): >200 mg/mL; Approximate Solubility (2-Propanol): >200 mg/mL; solubility (2-methyl THF, organic solvent or mixture): > 200 mg/mL; solubility (2-propanol, organic solvent or mixture): > 200 mg/mL; Approximate Solubility (Acetone): >200 mg/mL; Approximate Solubility (Acetonitrile): >200 mg/mL; Approximate Solubility (Anisole): >200 mg/mL; solubility (DMSO, organic solvent or mixture): > 200 mg/mL; Approximate Solubility (DMSO): >200 mg/mL; Approximate Solubility (Dichloromethane): >200 mg/mL; Approximate Solubility (Ethanol): >200 mg/mL; Approximate Solubility (Ethyl acetate): >200 mg/mL; solubility (MEK (methyl ethyl ketone), organic solvent or mixture, MEK): > 200 mg/mL; Approximate Solubility (MEK): >200 mg/mL; Approximate Solubility (Methanol): >200 mg/mL; solubility (THF, organic solvent or mixture): > 200 mg/mL; Approximate Solubility (THF): >200 mg/mL; Approximate Solubility (Toluene): >200 mg/mL; solubility (acetone, organic solvent or mixture): > 200 mg/mL; solubility (acetonitrile, organic solvent or mixture): > 200 mg/mL; solubility (anisole, organic solvent or mixture): > 200 mg/mL; solubility (dichloromethane, organic solvent or mixture): > 200 mg/mL; solubility (ethanol, organic solvent or mixture): > 200 mg/mL; solubility (ethanol:water 75:25 v/v, aqueous with cosolvent or surfactant or cyclodextrin, Ethanol:Water 75:25 v/v): > 200 mg/mL; solubility (ethyl acetate, organic solvent or mixture): > 200 mg/mL; solubility (heptane, organic solvent or mixture): ≤ 10 mg/mL; solubility (methanol, organic solvent or mixture): > 200 mg/mL; solubility (methanol:water 77:23 v/v, aqueous with cosolvent or surfactant or cyclodextrin, Methanol:Water 77:23 v/v): 50 mg/mL (≈ 99.3 mM); solubility (tBME, organic solvent or mixture): ≤ 10 mg/mL; solubility (toluene, organic solvent or mixture): > 200 mg/mL; solubility (water): ≤ 10 mg/mL
